Assay results as given in JPH07118153A, “抗ウレアーゼ剤” (Eisai Co Ltd, priority 1993, dated 1995).

Assays:
[1] = test system: a wide range of ureases [幅広い種類のウレアーゼ]; assay: Urease inhibition across ureases (tables 2 and 4 taken together); assay type: biochemical; conditions: from tables 2 and 4
[2] = molecular target: T1, H. pylori-produced urease [H.pylori産生ウレアーゼ] (Helicobacter pylori, UniProt P69996); assay type: biochemical, Helicobacter pylori (ATCC43504)
Target sequence in this assay (P69996 whole entry, looked up): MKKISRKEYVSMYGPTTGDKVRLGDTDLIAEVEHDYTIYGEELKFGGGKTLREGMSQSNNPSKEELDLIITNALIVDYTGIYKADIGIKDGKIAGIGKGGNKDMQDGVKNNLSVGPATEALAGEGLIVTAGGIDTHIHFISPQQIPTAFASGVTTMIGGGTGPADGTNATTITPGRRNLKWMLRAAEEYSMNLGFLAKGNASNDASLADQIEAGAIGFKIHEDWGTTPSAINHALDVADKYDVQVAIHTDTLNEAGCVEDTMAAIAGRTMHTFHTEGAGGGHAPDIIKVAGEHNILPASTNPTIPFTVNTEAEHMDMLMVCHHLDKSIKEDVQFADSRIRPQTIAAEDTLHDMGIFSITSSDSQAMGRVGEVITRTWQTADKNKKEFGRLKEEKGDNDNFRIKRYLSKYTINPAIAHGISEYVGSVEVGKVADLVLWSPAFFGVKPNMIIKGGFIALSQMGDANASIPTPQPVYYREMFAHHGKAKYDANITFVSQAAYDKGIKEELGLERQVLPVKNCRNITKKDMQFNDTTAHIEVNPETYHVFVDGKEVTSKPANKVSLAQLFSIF

[3] = molecular target: jack bean urease [なた豆ウレアーゼ] (Canavalia ensiformis, UniProt P07374); assay: Inhibition of jack bean urease (inhibition test example 1); assay type: biochemical; conditions: from tables 2 and 4
Chain of jack bean urease [なた豆ウレアーゼ] (P07374 whole entry, looked up): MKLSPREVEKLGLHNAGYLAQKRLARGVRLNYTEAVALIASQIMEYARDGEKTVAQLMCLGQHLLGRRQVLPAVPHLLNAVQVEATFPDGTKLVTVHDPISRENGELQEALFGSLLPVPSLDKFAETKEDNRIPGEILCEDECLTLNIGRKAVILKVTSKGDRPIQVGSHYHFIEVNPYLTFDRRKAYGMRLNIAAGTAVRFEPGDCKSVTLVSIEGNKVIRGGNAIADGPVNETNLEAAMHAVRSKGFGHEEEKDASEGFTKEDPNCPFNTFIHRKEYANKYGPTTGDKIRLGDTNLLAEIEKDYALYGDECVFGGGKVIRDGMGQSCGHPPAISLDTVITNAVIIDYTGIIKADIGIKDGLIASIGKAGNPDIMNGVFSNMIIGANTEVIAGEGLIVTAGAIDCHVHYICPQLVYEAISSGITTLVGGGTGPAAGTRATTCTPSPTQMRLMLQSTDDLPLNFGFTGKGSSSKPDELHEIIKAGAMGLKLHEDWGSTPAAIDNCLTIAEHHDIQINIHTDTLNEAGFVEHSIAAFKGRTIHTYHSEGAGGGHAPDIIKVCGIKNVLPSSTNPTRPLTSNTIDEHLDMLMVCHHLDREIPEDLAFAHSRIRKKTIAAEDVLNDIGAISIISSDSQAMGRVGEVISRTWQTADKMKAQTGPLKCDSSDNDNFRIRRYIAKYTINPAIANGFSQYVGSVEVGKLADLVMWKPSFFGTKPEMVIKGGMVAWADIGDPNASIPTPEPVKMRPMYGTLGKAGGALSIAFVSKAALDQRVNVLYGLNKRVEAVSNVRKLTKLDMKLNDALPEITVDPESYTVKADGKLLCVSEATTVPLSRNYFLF

[4] = Acute toxicity test, single dose, intravenous and oral; assay type: in vivo, Slc:SD rats and Slc:ICR mice; conditions: rats and mice
[5] = molecular target: T1, H. pylori-produced urease [H.pylori産生ウレアーゼ]; conditions: cited from earlier work; for inhibition of H. pylori-produced urease: Antimicrobial Agents and Chemotherapy, 37(4), 769-774, 1993
Target sequence in this assay (P69996 whole entry): as the sequence (P69996 whole entry, looked up) above
Target sequence in this assay (P14916 whole entry, further chain): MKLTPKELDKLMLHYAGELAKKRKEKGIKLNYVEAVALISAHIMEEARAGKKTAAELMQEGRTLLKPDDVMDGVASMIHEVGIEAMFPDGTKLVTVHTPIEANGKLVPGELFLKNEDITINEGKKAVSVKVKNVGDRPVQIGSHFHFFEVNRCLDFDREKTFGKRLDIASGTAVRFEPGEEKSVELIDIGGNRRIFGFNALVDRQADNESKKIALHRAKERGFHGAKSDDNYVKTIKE

Structure (SMILES) | inhibitory action on a wide range of ureases [1] | H. pylori-produced urease inhibitory action [2] | activity relative to control substance (times stronger) ([2]; H. pylori-produced urease, control substance acetohydroxamic acid) | inhibitory activity on H. pylori-produced urease, compared with reference substances ([2]; versus acetohydroxamic acid, caprylohydroxamic acid, nicotinohydroxamic acid, benzohydroxamic acid, omeprazole and lansoprazole, from tables 2, 3 and 4) | inhibitory action on jack bean urease [3] | selectivity ratio ([4]; in vivo, intravenous and oral, multiple of the clinical dose by oral administration, read-out: LD50 values relative to the oral clinical dose) | safety ([4]; judged from LD50 values) | inhibition of H. pylori-produced urease [5] | anti-urease activity relative to acetohydroxamic acid ([5]; disclosed in Antimicrobial Agents and Chemotherapy, compared with acetohydroxamic acid)
COCCCOc1ccnc(C[S+]([O-])c2nc3ccccc3[nH]2)c1C (stereo not shown) [本発明化合物, 2−[4−(3−メトキシプロポキシ)−3−メチルピリジン−2−イル]メチルスルフィニル−1H−ベンズイミダゾール] | 阻害作用を示した | 阻害作用を有している | ~100 fold | 優れた阻害活性を有する | 阻害作用も有しており | ≥ 5000 | 安全性は極めて高い |  | 
COc1ccc2[nH]c([S+]([O-])Cc3ncc(C)c(OC)c3C)nc2c1 (stereo not shown) [オメプラゾール, 5−メトキシ−2−(4−メトキシ−3,5−ジメチルピリジン−2−イル)メチルスルフィニル−1H−ベンズイミダゾール] |  |  |  |  |  |  |  | 阻害する | 
Cc1c(OCC(F)(F)F)ccnc1C[S+]([O-])c1nc2ccccc2[nH]1 (stereo not shown) [ランソプラゾール, 2−[3−メチル−4−(2,2,2−トリフルオロエトキシ)ピリジン−2−イル]メチルスルフィニル−1H−ベンズイミダゾール] |  |  |  |  |  |  |  | 阻害する | ~2 fold
